Reference: patent US20100204203A1, “Chemical Compounds 637: Pyridopyrimidinediones as PDE4 Inhibitors” (priority 2007, published 2010)

Biological target: recombinant Human Phosphodiesterase B2 (PDE4B2) (Homo sapiens, UniProt Q07343)
Experiment: Human Phosphodiesterase B2 Radiometric Assay (yttrium silicate SPA beads, [3H]cyclic AMP)
Assay type: biochemical
Details: recombinant human PDE4B2, radiometric SPA assay, 8 nM [3H]cyclic AMP; read-out: PDE4B2 pIC50 (converted)
Procedure, shortened: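 Read-out is scintillation proximity: yttrium silicate beads (with 18 mM ZnSO4, added to stop the reaction) bind 5′AMP formed from 8 nM [3H]cAMP over 20 min. Beforehand, compound and 0.1 mg/mL enzyme were preincubated 30 min at 30 °C in pH 7.5 HEPES buffer with MgCl2, EGTA and Brij 35; pIC50 values were curve-fitted.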

Chain of recombinant Human Phosphodiesterase B2 (PDE4B2) (Q07343 1-564 isoform Q07343-2): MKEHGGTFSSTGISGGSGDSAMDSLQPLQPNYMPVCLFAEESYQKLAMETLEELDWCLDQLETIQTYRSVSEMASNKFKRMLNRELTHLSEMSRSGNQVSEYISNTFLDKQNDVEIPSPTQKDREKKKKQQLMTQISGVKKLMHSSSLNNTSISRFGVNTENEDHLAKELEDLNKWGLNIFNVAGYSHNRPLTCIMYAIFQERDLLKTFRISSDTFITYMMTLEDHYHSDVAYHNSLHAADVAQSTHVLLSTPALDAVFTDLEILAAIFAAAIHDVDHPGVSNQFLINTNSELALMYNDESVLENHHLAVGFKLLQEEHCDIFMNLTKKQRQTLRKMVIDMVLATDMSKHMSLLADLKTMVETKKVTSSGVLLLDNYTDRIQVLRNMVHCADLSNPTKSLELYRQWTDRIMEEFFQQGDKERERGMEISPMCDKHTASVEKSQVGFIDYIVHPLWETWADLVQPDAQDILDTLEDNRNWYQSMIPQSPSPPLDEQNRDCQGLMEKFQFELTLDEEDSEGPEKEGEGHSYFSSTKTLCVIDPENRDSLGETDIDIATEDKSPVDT

IC50 | Structure (SMILES)
0.0316 nM | Cc1cc(C(=O)N[C@H]2CC[C@@H](n3c(=O)c4cc(F)cnc4n(-c4cccc(-c5ccc(CN6CCN(C7CCCC7)CC6)cc5)c4)c3=O)CC2)nn1C [Example 215, N-{cis-4-[1-{4′-[(4-cyclopentylpiperazin-1-yl)methyl]biphenyl-3-yl}-6-fluoro-2,4-dioxo-1,4-dihydropyrido[2,3-d]pyrimidin-3(2H)-yl]cyclohexyl}-1,5-dimethyl-1H-pyrazole-3-carboxamide]
0.0126 nM | Cc1cc(C(=O)N[C@H]2CC[C@@H](n3c(=O)c4cc(F)cnc4n(-c4cccc(-c5ccc(CN6CCN(CC(=O)N(C)C)CC6)cc5)c4)c3=O)CC2)nn1C [Example 216]
0.0316 nM | COCCN(C)Cc1ccc(-c2cccc(-n3c(=O)n([C@H]4CC[C@@H](NC(=O)c5cc(C)n(C)n5)CC4)c(=O)c4cc(F)cnc43)c2)cc1 [Example 217, N-{cis-4-[6-fluoro-1-(4′-{[(2-methoxyethyl)(methyl)amino]methyl}biphenyl-3-yl)-2,4-dioxo-1,4-dihydropyrido[2,3-d]pyrimidin-3(2H)-yl]cyclohexyl}-1,5-dimethyl-1H-pyrazole-3-carboxamide]
0.00631 nM | CC(=O)N1CCN(Cc2ccc(-c3cccc(-n4c(=O)n([C@H]5CC[C@@H](NC(=O)c6cn7c(n6)CCCC7)CC5)c(=O)c5cc(F)cnc54)c3)cc2)CC1 [Example 218, N-{cis-4-[1-{4′-[(4-acetylpiperazin-1-yl)methyl]biphenyl-3-yl}-6-fluoro-2,4-dioxo-1,4-dihydropyrido[2,3-d]pyrimidin-3(2H)-yl]cyclohexyl}-5,6,7,8-tetrahydroimidazo[1,2-a]pyridine-2-carboxamide]
0.00501 nM | CC(C)NC(=O)CN1CCN(Cc2ccc(-c3cccc(-n4c(=O)n([C@H]5CC[C@@H](NC(=O)c6cn7c(n6)CCCC7)CC5)c(=O)c5cc(F)cnc54)c3)cc2)CC1 [Example 219, N-{cis-4-[6-fluoro-1-[4′-({4-[2-(isopropylamino)-2-oxoethyl]piperazin-1-yl}methyl)biphenyl-3-yl]-2,4-dioxo-1,4-dihydropyrido[2,3-d]pyrimidin-3(2H)-yl]cyclohexyl}-5,6,7,8-tetrahydroimidazo[1,2-a]pyridine-2-carboxamide]
0.00794 nM | Cc1cccc2nc(C(=O)N[C@H]3CC[C@@H](n4c(=O)c5cc(F)cnc5n(-c5cccc(-c6ccc(CN7CCCN(C)CC7)cc6)c5)c4=O)CC3)cn12 [Example 220, N-{cis-4-[6-fluoro-1-{4′-[(4-methyl-1,4-diazepan-1-yl)methyl]biphenyl-3-yl}-2,4-dioxo-1,4-dihydropyrido[2,3-d]pyrimidin-3(2H)-yl]cyclohexyl}-5-methylimidazo[1,2-a]pyridine-2-carboxamide]
0.01 nM | O=C(N[C@H]1CC[C@@H](n2c(=O)c3cc(F)cnc3n(-c3cccc(-c4ccc(CN5CCN(C6CCCC6)CC5)cc4)c3)c2=O)CC1)c1cn2c(n1)CCCC2 [Example 221, N-{cis-4-[1-{4′-[(4-cyclopentylpiperazin-1-yl)methyl]biphenyl-3-yl}-6-fluoro-2,4-dioxo-1,4-dihydropyrido[2,3-d]pyrimidin-3(2H)-yl]cyclohexyl}-5,6,7,8-tetrahydroimidazo[1,2-a]pyridine-2-carboxamide]
0.00631 nM | O=C(N[C@H]1CC[C@@H](n2c(=O)c3cc(F)cnc3n(-c3cccc(-c4ccc(CN5CCCN(CCO)CC5)cc4)c3)c2=O)CC1)c1cn2c(n1)CCCC2 [Example 222, N-{cis-4-[6-fluoro-1-(4′-{[4-(2-hydroxyethyl)-1,4-diazepan-1-yl]methyl}biphenyl-3-yl)-2,4-dioxo-1,4-dihydropyrido[2,3-d]pyrimidin-3(2H)-yl]cyclohexyl}-5,6,7,8-tetrahydroimidazo[1,2-a]pyridine-2-carboxamide]
0.01 nM | O=C(N[C@H]1CC[C@@H](n2c(=O)c3cc(F)cnc3n(-c3cccc(-c4ccc(CN5CCC(N6CCCCC6)CC5)cc4)c3)c2=O)CC1)c1cn2c(n1)CCCC2 [Example 223, N-{cis-4-[1-[4′-(1,4′-bipiperidin-1′-ylmethyl)biphenyl-3-yl]-6-fluoro-2,4-dioxo-1,4-dihydropyrido[2,3-d]pyrimidin-3(2H)-yl]cyclohexyl}-5,6,7,8-tetrahydroimidazo[1,2-a]pyridine-2-carboxamide]
0.01 nM | O=C(N[C@H]1CC[C@@H](n2c(=O)c3cc(F)cnc3n(-c3cccc(-c4ccc(CN5CCCOCC5)cc4)c3)c2=O)CC1)c1cn2c(n1)CCCC2 [Example 224, N-{cis-4-[6-fluoro-1-[4′-(1,4-oxazepan-4-ylmethyl)biphenyl-3-yl]-2,4-dioxo-1,4-dihydropyrido[2,3-d]pyrimidin-3(2H)-yl]cyclohexyl}-5,6,7,8-tetrahydroimidazo[1,2-a]pyridine-2-carboxamide]
0.0158 nM | CCN(CC)CCN(C)Cc1ccc(-c2cccc(-n3c(=O)n([C@H]4CC[C@@H](NC(=O)c5cn6c(n5)CCCC6)CC4)c(=O)c4cc(F)cnc43)c2)cc1 [Example 225, N-{cis-4-[1-(4′-{[[2-(diethylamino)ethyl](methyl)amino]methyl}biphenyl-3-yl)-6-fluoro-2,4-dioxo-1,4-dihydropyrido[2,3-d]pyrimidin-3(2H)-yl]cyclohexyl}-5,6,7,8-tetrahydroimidazo[1,2-a]pyridine-2-carboxamide]
0.0501 nM | O=C(N[C@H]1CC[C@@H](n2c(=O)c3cc(F)cnc3n(-c3cccc(-c4ccc(CN5CCC[C@H]5CO)cc4)c3)c2=O)CC1)c1cn2c(n1)CCCC2 [Example 226, N-{cis-4-[6-fluoro-1-(4′-{[(2S)-2-(hydroxymethyl)pyrrolidin-1-yl]methyl}biphenyl-3-yl)-2,4-dioxo-1,4-dihydropyrido[2,3-d]pyrimidin-3(2H)-yl]cyclohexyl}-5,6,7,8-tetrahydroimidazo[1,2-a]pyridine-2-carboxamide]
0.00794 nM | CCCN1CCN(Cc2ccc(-c3cccc(-n4c(=O)n([C@H]5CC[C@@H](NC(=O)c6cn7c(n6)CCCC7)CC5)c(=O)c5cc(F)cnc54)c3)cc2)CC1 [Example 227, N-{cis-4-[6-fluoro-2,4-dioxo-1-{4′-[(4-propylpiperazin-1-yl)methyl]biphenyl-3-yl}-1,4-dihydropyrido[2,3-d]pyrimidin-3(2H)-yl]cyclohexyl}-5,6,7,8-tetrahydroimidazo[1,2-a]pyridine-2-carboxamide]
0.0251 nM | Cc1cc(C(=O)N[C@H]2CC[C@@H](n3c(=O)c4cc(F)cnc4n(-c4cccc(-c5ccc(CN6CCNCC6)cc5)c4)c3=O)CC2)nn1C [Example 228, N-{cis-4-[6-fluoro-2,4-dioxo-1-[4′-(piperazin-1-ylmethyl)biphenyl-3-yl]-1,4-dihydropyrido[2,3-d]pyrimidin-3(2H)-yl]cyclohexyl}-1,5-dimethyl-1H-pyrazole-3-carboxamide]
0.00631 nM | O=C(N[C@H]1CC[C@@H](n2c(=O)c3cc(F)cnc3n(-c3cccc(-c4ccc(CN5CCNCC5)cc4Br)c3)c2=O)CC1)c1cn2cc(F)ccc2n1 [Example 229, N-{cis-4-[1-[2′-Bromo-4′-(piperazin-1-ylmethyl)biphenyl-3-yl]-6-fluoro-2,4-dioxo-1,4-dihydropyrido[2,3-d]pyrimidin-3(2H)-yl]cyclohexyl}-6-fluoroimidazo[1,2-a]pyridine-2-carboxamide]
0.0316 nM | Cc1cc(-c2ccc(CN3CCNCC3)cc2)cc(-n2c(=O)n([C@H]3CC[C@@H](NC(=O)c4cn5cc(F)ccc5n4)CC3)c(=O)c3cc(F)cnc32)c1 [Example 230, 6-Fluoro-N-{cis-4-[6-fluoro-1-[5-methyl-4′-(piperazin-1-ylmethyl)biphenyl-3-yl]-2,4-dioxo-1,4-dihydropyrido[2,3-d]pyrimidin-3 (2H)-yl]cyclohexyl}imidazo[1,2-a]pyridine-2-carboxamide]
0.126 nM | CNCCNCc1ccc(-c2cc(C)cc(-n3c(=O)n([C@H]4CC[C@@H](NC(=O)c5cn6cc(F)ccc6n5)CC4)c(=O)c4cc(F)cnc43)c2)cc1 [Example 231]
0.251 nM | CC(=O)N[C@H]1CC[C@@H](n2c(=O)c3cc(F)cnc3n(-c3cccc(-c4ccc(CN5CCN(C(C)C)CC5)cc4)c3)c2=O)CC1 [Example 232, N-{cis-4-[6-Fluoro-1-{4′-[(4-isopropylpiperazin-1-yl)methyl]biphenyl-3-yl}-2,4-dioxo-1,4-dihydropyrido[2,3-d]pyrimidin-3(2H)-yl]cyclohexyl}acetamide]
0.0501 nM | CC(C)N1CCN(Cc2ccc(-c3cccc(-n4c(=O)n([C@H]5CC[C@@H](NC(=O)C6CC6)CC5)c(=O)c5cc(F)cnc54)c3)cc2)CC1 [Example 233, N-{cis-4-[6-fluoro-1-{4′-[(4-isopropylpiperazin-1-yl)methyl]biphenyl-3-yl}-2,4-dioxo-1,4-di-hydropyrido[2,3-d]pyrimidin-3(2H)-yl]cyclohexyl}cyclo-propanecarboxamide]
0.1 nM | CC(C)N1CCN(Cc2ccc(-c3cccc(-n4c(=O)n([C@H]5CC[C@@H](NC(=O)CC6CCOCC6)CC5)c(=O)c5cc(F)cnc54)c3)cc2)CC1 [Example 234, N-{cis-4-[6-fluoro-1-{4′-[(4-isopropylpiperazin-1-yl)methyl]biphenyl-3-yl}-2,4-dioxo-1,4-di-hydropyrido[2,3-d]pyrimidin-3(2H)-yl]cyclohexyl}-2-(tetrahydro-2H-pyran-4-yl)acetamide]
0.126 nM | Cc1n[nH]cc1C(=O)N[C@H]1CC[C@@H](n2c(=O)c3cc(F)cnc3n(-c3cccc(-c4ccc(CN5CCN(C(C)C)CC5)cc4)c3)c2=O)CC1 [Example 235, N-{cis-4-[6-fluoro-1-{4′-[(4-isopropylpiperazin-1-yl)methyl]biphenyl-3-yl}-2,4-dioxo-1,4-di-hydropyrido[2,3-d]pyrimidin-3(2H)-yl]cyclohexyl}-3-methyl-1H-pyrazole-4-carboxamide]
0.126 nM | CC(C)N1CCN(Cc2ccc(-c3cccc(-n4c(=O)n([C@H]5CC[C@@H](NC(=O)C6CCCC6)CC5)c(=O)c5cc(F)cnc54)c3)cc2)CC1 [Example 236, N-{cis-4-[6-fluoro-1-{4′-[(4-isopropylpiperazin-1-yl)methyl]biphenyl-3-yl}-2,4-dioxo-1,4-di-hydropyrido[2,3-d]pyrimidin-3(2H)-yl]cyclohexyl}cyclo-pentanecarboxamide]
